Laboratory results reported in patent US20220000911A1, “COMBINATION OF GOLD COMPLEXES WITH OLAPARIB OR OTHER PARP1/2 INHIBITORS FOR USE IN THE TREATMENT OF CANCER RESISTANT TO SAID PARP1/2 INHIBITORS” (Varsity Pharmaceuticals Limited, priority 2020, published 2022).

Assays:
Assay type in all cases: cell-based
[1] = system: olaparib resistant A2780 ovarian cancer cells; assay: CellTiter Glo proliferation inhibition, olaparib resistant A2780 cells, single agents; conditions: for IC50: A2780; for inhibition at 0.00152 µM: test conc. 1.52 nM; for inhibition at 0.00457 µM: test conc. 4.57 nM; for inhibition at 0.01372 µM: test conc. 13.72 nM; for inhibition at 0.04115 µM: test conc. 41.15 nM; for inhibition at 0.12346 µM: test conc. 123.46 nM; for inhibition at 0.37037 µM: test conc. 370.37 nM; for inhibition at 10 µM: test conc. 10,000 nM; for inhibition at 30 µM: test conc. 30,000 nM; for Maximum inhibition observed in olaparib resistant A2780 cells: concentration range 0.06 nM to 30,000 nM
Procedure: A2780 ovarian cancer cells (wild-type “WT”) were cultured in RPMI 1640 Medium with 10% Fetal Bovine Serum (FBS).
To obtain cells resistant to olaparib, the cells were cultured in cell culture medium (RPMI 1640 Medium with 10% FBS) supplemented with 20 μM olaparib for one month in order to generate A2780 cells resistant to olaparib (“R”). After a month the cells were continuously cultured in the cell culture medium (RPMI 1640 Medium with 10% FBS) supplemented with 10 μM olaparib prior to use and for up to two months to maintain the resistance.
(§1) The cells were harvested from a flask into cell culture medium (RPMI 1640 Medium with 10% FBS) and then counted. The cells were diluted with culture medium and 40 μL of cell suspension (1000 cells/well) was added into each well of a 384-well cell culture plate. The plate was covered with a lid and left at room temperature without shaking for 30 minutes. The plate was then transferred to an incubator at 37° C. and 5% CO2 and left overnight.
Test compounds were dissolved at a concentration of 30 mM in DMSO to create a stock solution. 45 μL of the stock solution was transferred to a 384 pp-plate. […] The plate was then spun at room temperature at 1,000 RPM for 1 minute. 40 nL of the diluted compound was then transferred from the compound source plate into the cell plate. The cell plate was then covered with a lid and placed in an incubator at 37° C. and 5% CO2 and left for 120 hours. 72 hours after treatment with the compound detection was conducted as discussed below.
(§2) CellTiter Glo® reagents were thawed and equilibrated to room temperature. The cell plate was then removed from the incubator and equilibrated at room temperature for 15 minutes. 30 μL of the CellTiter Glo® reagents were then added into each well (at 1:1 to culture medium). The contents was mixed for 2 minutes on an orbital shaker to induce cell lysis and then the plates were allowed to incubate at room temperature for 30 minutes. Luminescence was then measured on an Envision reader (Perkin Elmer).
The inhibition activity was calculated using the following formula:
(§3) Inhibition (%)=100×(Lumvehicle−Lumsample)/(Lumvehicle−Lumblank),
where Lumvehicle is the luminescence of cells treated with 0.1% DMSO and Lumblank is cells in the culture medium.
The IC50 was calculated by fitting the curve using Xlfit (v5.3.1.3), equation 201: […]

[2] = system: wildtype A2780 ovarian cancer cells; assay: CellTiter Glo proliferation inhibition, wild-type A2780 cells; conditions: for IC50: A2780; for inhibition at 0.00152 µM: test conc. 1.52 nM; for inhibition at 0.00457 µM: test conc. 4.57 nM; for inhibition at 0.01372 µM: test conc. 13.72 nM; for inhibition at 0.04115 µM: test conc. 41.15 nM; for inhibition at 0.12346 µM: test conc. 123.46 nM; for inhibition at 0.37037 µM: test conc. 370.37 nM; for inhibition at 10 µM: test conc. 10,000 nM; for inhibition at 30 µM: test conc. 30,000 nM; for Maximum inhibition observed in wild-type A2780 cells: concentration range 0.06 nM to 30,000 nM
Procedure: The A2780 cell line is an ovarian cancer cell line that was established from an ovarian endometroid adenocarcinoma tumour. […] It is commonly used as a model to observe the effects of, and test the potency of various chemicals, methods of delivery and treatments for ovarian cancer. […] The cells were diluted with culture medium and 40 μL of cell suspension (1000 cells/well) was added into each well of a 384-well cell culture plate. The plate was covered with a lid and left at room temperature without shaking for 30 minutes. The plate was then transferred to an incubator at 37° C. and 5% CO2 and left overnight. Test compounds were dissolved at a concentration of 30 mM in DMSO to create a stock solution. 45 μL of the stock solution was transferred to a 384 pp-plate. […] The plate was then spun at room temperature at 1,000 RPM for 1 minute. 40 nL of the diluted compound was then transferred from the compound source plate into the cell plate. The cell plate was then covered with a lid and placed in an incubator at 37° C. and 5% CO2 and left for 120 hours. 72 hours after treatment with the compound detection was conducted as discussed below. CellTiter Glo® reagents were thawed and equilibrated to room temperature. The cell plate was then removed from the incubator and equilibrated at room temperature for 15 minutes. 30 μL of the CellTiter Glo® reagents were then added into each well (at 1:1 to culture medium). The contents was mixed for 2 minutes on an orbital shaker to induce cell lysis and then the plates were allowed to incubate at room temperature for 30 minutes. Luminescence was then measured on an Envision reader (Perkin Elmer). The inhibition activity was calculated using the following formula: […]

[3] = system: olaparib resistant HCC1937 triple negative breast cancer cells; assay: Proliferation inhibition of olaparib resistant HCC1937 cells, single agents
Procedure: as §1
Test compounds were dissolved at a concentration of 30 mM in DMSO to create a stock solution. 45 μL of the stock solution was transferred to a 384 pp-plate. A 3-fold, 10-point dilution was performed by transferring 15 μL of the compound solution into 30 μL DMSO by using TECAN (EVO200) liquid handler. The plate was then spun at room temperature at 1,000 RPM for 1 minute. 40 nL of the diluted compound was then transferred from the compound source plate into the cell plate. The cell plate was then covered with a lid and placed in an incubator at 37° C. and 5% CO2 and left for 120 hours. 72 hours after treatment with the compound detection was conducted as discussed below.
as §2, §3
The methods were as described in examples 1 and 2, except the HCC1937 cell line was used.
The HCC1937 cell line was established from a primary breast carcinoma from a patient with a germ-line BRCA1 mutation. It is an example of a triple-negative breast cancer (TNBC) cell line. Breast cancer patients routinely have the expression of estrogen receptor (ER), progesterone receptor (PR), and amplification of HER-2/Neu evaluated. […] The latter group is referred to as triple-negative breast cancer based on the lack of these three molecular markers. TNBC represents approximately 10-15% of all breast cancers and patients with TNBC have a poor outcome compared to the other subtypes of breast cancer.

[4] = Homo sapiens, olaparib resistant A2780, read-out: Mean Inhibition (n = 3)
[5] = olaparib resistant A2780, test conc. 1,111.11 nM
[6] = olaparib resistant A2780, test conc. 3,333.33 nM
[7] = Homo sapiens, wildtype A2780, read-out: Mean Inhibition (n = 3)
[8] = wildtype A2780, test conc. 1,111.11 nM
[9] = wildtype A2780, test conc. 3,333.33 nM

## O=C(c1cc(Cc2n[nH]c(=O)c3ccccc23)ccc1F)N1CCN(C(=O)C2CC2)CC1 [Olaparib, olaparib]
[1]; Homo sapiens
  IC50: > 30 µM
[1]; [4]
  inhibition at 0.00152 µM: 1.01%
  inhibition at 0.00457 µM: 2.74%
  inhibition at 0.01372 µM: 1.78%
  inhibition at 0.04115 µM: 1.43%
  inhibition at 0.12346 µM: 5.53%
  inhibition at 0.37037 µM: 5.11%
  inhibition at 10 µM: 9.9%
  inhibition at 30 µM: 16.2%
[1]
  Maximum inhibition observed in olaparib resistant A2780 cells: 23%
[1]; [5]
  Mean Inhibition (n = 3): 2.24%
[1]; [6]
  Mean Inhibition (n = 3): 6.97%
[2]; Homo sapiens
  IC50: 3.89 µM
[2]; [7]
  inhibition at 0.00152 µM: 0.36%
  inhibition at 0.00457 µM: 1.77%
  inhibition at 0.01372 µM: 2.98%
  inhibition at 0.04115 µM: 5%
  inhibition at 0.12346 µM: 12.5%
  inhibition at 0.37037 µM: 11.9%
  inhibition at 10 µM: 62.7%
  inhibition at 30 µM: 70.8%
[2]
  Maximum inhibition observed in wild-type A2780 cells: 72%
[2]; [8]
  Mean Inhibition (n = 3): 24.63%
[2]; [9]
  Mean Inhibition (n = 3): 39.88%
[3]; test conc. 1.52 nM, read-out: Mean Inhibition (n = 3)
  inhibition at 0.00152 µM: -6.55%
[3]; test conc. 4.57 nM, read-out: Mean Inhibition (n = 3)
  inhibition at 0.00457 µM: -1.82%
[3]; test conc. 13.72 nM, read-out: Mean Inhibition (n = 3)
  inhibition at 0.01372 µM: -3.47%
[3]; test conc. 41.15 nM, read-out: Mean Inhibition (n = 3)
  inhibition at 0.04115 µM: -0.93%
[3]; test conc. 123.46 nM, read-out: Mean Inhibition (n = 3)
  inhibition at 0.12346 µM: 1.32%
[3]; test conc. 370.37 nM, read-out: Mean Inhibition (n = 3)
  inhibition at 0.37037 µM: 4.41%
[3]; test conc. 1,111.11 nM
  Mean Inhibition (n = 3): 3.09%
[3]; test conc. 3,333.33 nM
  Mean Inhibition (n = 3): 4.90%
[3]; test conc. 10,000 nM, read-out: Mean Inhibition (n = 3)
  inhibition at 10 µM: 17%
[3]; test conc. 30,000 nM, read-out: Mean Inhibition (n = 3)
  inhibition at 30 µM: 11.8%

## Cn1ncnc1[C@H]1c2n[nH]c(=O)c3cc(F)cc(c23)N[C@@H]1c1ccc(F)cc1 [Talazoparib, talazoparib]
[1]; Homo sapiens
  IC50: 4.31 µM
[1]; Homo sapiens, olaparib resistant A2780, test conc. 0.06 nM, read-out: Mean Inhibition (n = 3)
  inhibition at 60 pM: 5.28%
[1]; Homo sapiens, olaparib resistant A2780, test conc. 0.17 nM, read-out: Mean Inhibition (n = 3)
  inhibition at 0.00017 µM: -0.08%
[1]; Homo sapiens, olaparib resistant A2780, test conc. 0.51 nM, read-out: Mean Inhibition (n = 3)
  inhibition at 0.00051 µM: 6.18%
[1]; [4]
  inhibition at 0.00152 µM: 2.33%
  inhibition at 0.00457 µM: 3.63%
  inhibition at 0.01372 µM: 4.9%
  inhibition at 0.04115 µM: -1.18%
  inhibition at 0.12346 µM: 2.95%
  inhibition at 0.37037 µM: 9.21%
  inhibition at 10 µM: 49%
  inhibition at 30 µM: 64.3%
[1]
  Maximum inhibition observed in olaparib resistant A2780 cells: 66%
[1]; [5]
  Mean Inhibition (n = 3): 15.45%
[1]; [6]
  Mean Inhibition (n = 3): 34.89%
[1]; olaparib resistant A2780 cells
  Resistance of the olaparib resistant cells to other PARPis: resistant
[2]; Homo sapiens
  IC50: 0.019 µM
[2]; Homo sapiens, wildtype A2780, test conc. 0.06 nM, read-out: Mean Inhibition (n = 3)
  inhibition at 60 pM: 0.69%
[2]; Homo sapiens, wildtype A2780, test conc. 0.17 nM, read-out: Mean Inhibition (n = 3)
  inhibition at 0.00017 µM: -0.65%
[2]; Homo sapiens, wildtype A2780, test conc. 0.51 nM, read-out: Mean Inhibition (n = 3)
  inhibition at 0.00051 µM: 2.86%
[2]; [7]
  inhibition at 0.00152 µM: 6.64%
  inhibition at 0.00457 µM: 23.4%
  inhibition at 0.01372 µM: 35.8%
  inhibition at 0.04115 µM: 46.3%
  inhibition at 0.12346 µM: 56.3%
  inhibition at 0.37037 µM: 64.5%
  inhibition at 10 µM: 77.6%
  inhibition at 30 µM: 78.9%
[2]
  Maximum inhibition observed in wild-type A2780 cells: 80%
[2]; [8]
  Mean Inhibition (n = 3): 71.38%
[2]; [9]
  Mean Inhibition (n = 3): 76.54%
